Measured values published in ChEMBL document CHEMBL1153943, “Exploring the pharmacokinetic properties of phosphorus-containing selective HDAC 1 and 2 inhibitors (SHI-1:2)” (Bioorg Med Chem Lett, 2009).
Calls of active or inactive are those of the source. No cut-off for these calls is given here.

Key:
Histone deacetylase 1 = Histone deacetylase 1 (Homo sapiens, UniProt Q13547); experiment: Inhibition of HDAC1
HCT-116 [1] = experiment: Antiproliferative activity against human HCT116 cells after 72 hrs; format: functional; conditions: HCT-116, 72 h
[2] = Cmax in mouse at 150 mg/kg, po; format: ADME, organism-based; parameters: dose 150 mg/kg, route oral; conditions: in vivo
[3] = AUC in mouse at 150 mg/kg, po; format: ADME, organism-based, Plasma; parameters: dose 150 mg/kg, route oral; conditions: whole blood
[4] = Volume of distribution at steady state in Beagle dog; format: ADME, organism-based, Canis lupus familiaris; conditions: in vivo, read-out: Vdss
[5] = Half life in Beagle dog; format: ADME, organism-based, Canis lupus familiaris; conditions: in vivo
[6] = Clearance in Sprague-Dawley rat plasma; format: ADME, organism-based
[7] = Oral bioavailability in Sprague-Dawley rat; format: ADME, organism-based; conditions: in vivo
[8] = AUC (0 to infinity) in po dosed Sprague-Dawley rat; format: ADME, organism-based; parameters: time infinity, route oral; conditions: plasma
[9] = Volume of distribution at steady state in Sprague-Dawley rat; format: ADME, organism-based; conditions: in vivo, read-out: Vdss
[10] = Half life in Sprague-Dawley rat; format: ADME, organism-based; conditions: in vivo
[11] = AUC (0 to infinity) in Swiss-Webster mouse; format: ADME, organism-based; parameters: time infinity; conditions: plasma
[12] = Volume of distribution at steady state in Swiss-Webster mouse; format: ADME, organism-based; conditions: in vivo, read-out: Vdss
[13] = Half life in Swiss-Webster mouse; format: ADME, organism-based; conditions: in vivo
[14] = AUC (0 to infinity) in Beagle dog; format: ADME, organism-based, Canis lupus familiaris; parameters: time infinity; conditions: plasma
[15] = Plasma concentration in ip dosed nude CD-1 mouse after 3 hrs
Mus musculus [16] = experiment: Effect on histone H2B acetylation in human HCT116 cells xenografted in CD1 mouse assessed as change in ratio of acetylated to deacetylated histone level at 150 mg/kg, po QD for 3 days measured after 24 hrs; format: functional, organism-based; parameters: dose 150 mg/kg; conditions: HCT-116
HCT-116 [17] = experiment: Antitumor activity against human HCT116 cells xenografted in po dosed mouse assessed as reduction in tumor growth dosed daily for 21 days; format: functional, organism-based
Mus musculus [18] = experiment: Toxicity in human HCT116 cells xenografted CD1 mouse assessed as body weight loss at 100 mg/kg, po after 21 days; format: organism-based, HCT-116; parameters: dose 100 mg/kg, route oral; conditions: in vivo, 504 h
Histone deacetylase 3 = Histone deacetylase 3 (Homo sapiens, UniProt O15379); experiment: Inhibition of HDAC3
Histone deacetylase 2 = Histone deacetylase 2 (Homo sapiens, UniProt Q92769); experiment: Inhibition of HDAC2
Mus musculus [19] = experiment: Effect on histone H2B acetylation in human HCT116 cells xenografted in CD1 mouse assessed as change in ratio of acetylated to deacetylated histone level at 150 mg/kg, po QD for 3 days measured after 8 hrs; format: functional, organism-based; parameters: dose 150 mg/kg; conditions: HCT-116
Histone deacetylase 4 = Histone deacetylase 4 (Homo sapiens, UniProt P56524); experiment: Inhibition of HDAC4
Histone deacetylase 5 = Histone deacetylase 5 (Homo sapiens, UniProt Q9UQL6); experiment: Inhibition of HDAC5
[20] = target: T1, Protein deacetylase HDAC6 (Homo sapiens, UniProt Q9UBN7); experiment: Inhibition of HDAC6
T1 sequence (Q9UBN7 whole entry): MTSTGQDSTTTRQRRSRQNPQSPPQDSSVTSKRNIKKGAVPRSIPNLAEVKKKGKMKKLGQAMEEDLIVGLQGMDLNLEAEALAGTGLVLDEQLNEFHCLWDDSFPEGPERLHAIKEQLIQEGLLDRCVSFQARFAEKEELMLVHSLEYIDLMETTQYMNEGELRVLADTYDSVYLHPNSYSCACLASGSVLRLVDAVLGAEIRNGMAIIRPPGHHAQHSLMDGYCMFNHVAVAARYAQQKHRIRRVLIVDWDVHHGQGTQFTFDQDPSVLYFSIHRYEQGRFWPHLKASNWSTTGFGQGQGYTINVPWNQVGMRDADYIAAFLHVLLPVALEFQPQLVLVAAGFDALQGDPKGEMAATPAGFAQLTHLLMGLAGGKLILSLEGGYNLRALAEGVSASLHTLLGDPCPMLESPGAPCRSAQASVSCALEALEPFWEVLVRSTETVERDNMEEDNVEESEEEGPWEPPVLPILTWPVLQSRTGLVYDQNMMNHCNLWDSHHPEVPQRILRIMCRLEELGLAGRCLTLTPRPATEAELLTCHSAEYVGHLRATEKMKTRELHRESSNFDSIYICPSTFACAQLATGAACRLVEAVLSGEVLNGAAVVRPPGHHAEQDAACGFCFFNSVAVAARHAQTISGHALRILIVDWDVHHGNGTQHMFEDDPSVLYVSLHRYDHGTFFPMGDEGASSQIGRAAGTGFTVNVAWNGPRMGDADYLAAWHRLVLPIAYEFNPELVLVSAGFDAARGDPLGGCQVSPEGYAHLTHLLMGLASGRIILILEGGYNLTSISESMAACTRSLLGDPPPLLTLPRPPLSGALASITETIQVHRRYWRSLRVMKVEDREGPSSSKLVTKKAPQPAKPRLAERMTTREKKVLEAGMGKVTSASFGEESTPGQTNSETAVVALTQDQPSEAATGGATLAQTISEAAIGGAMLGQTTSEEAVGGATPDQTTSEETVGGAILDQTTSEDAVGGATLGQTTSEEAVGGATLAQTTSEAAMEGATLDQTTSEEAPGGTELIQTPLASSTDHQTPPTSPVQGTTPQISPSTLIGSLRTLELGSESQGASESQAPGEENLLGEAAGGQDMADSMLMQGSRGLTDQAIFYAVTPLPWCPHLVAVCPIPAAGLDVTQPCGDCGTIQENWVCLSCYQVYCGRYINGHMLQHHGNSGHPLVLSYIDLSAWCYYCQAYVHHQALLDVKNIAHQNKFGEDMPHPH

Histone deacetylase 7 = target: T2, Histone deacetylase 7 (Homo sapiens, UniProt Q8WUI4); experiment: Inhibition of HDAC7
T2 sequence (Q8WUI4 whole entry): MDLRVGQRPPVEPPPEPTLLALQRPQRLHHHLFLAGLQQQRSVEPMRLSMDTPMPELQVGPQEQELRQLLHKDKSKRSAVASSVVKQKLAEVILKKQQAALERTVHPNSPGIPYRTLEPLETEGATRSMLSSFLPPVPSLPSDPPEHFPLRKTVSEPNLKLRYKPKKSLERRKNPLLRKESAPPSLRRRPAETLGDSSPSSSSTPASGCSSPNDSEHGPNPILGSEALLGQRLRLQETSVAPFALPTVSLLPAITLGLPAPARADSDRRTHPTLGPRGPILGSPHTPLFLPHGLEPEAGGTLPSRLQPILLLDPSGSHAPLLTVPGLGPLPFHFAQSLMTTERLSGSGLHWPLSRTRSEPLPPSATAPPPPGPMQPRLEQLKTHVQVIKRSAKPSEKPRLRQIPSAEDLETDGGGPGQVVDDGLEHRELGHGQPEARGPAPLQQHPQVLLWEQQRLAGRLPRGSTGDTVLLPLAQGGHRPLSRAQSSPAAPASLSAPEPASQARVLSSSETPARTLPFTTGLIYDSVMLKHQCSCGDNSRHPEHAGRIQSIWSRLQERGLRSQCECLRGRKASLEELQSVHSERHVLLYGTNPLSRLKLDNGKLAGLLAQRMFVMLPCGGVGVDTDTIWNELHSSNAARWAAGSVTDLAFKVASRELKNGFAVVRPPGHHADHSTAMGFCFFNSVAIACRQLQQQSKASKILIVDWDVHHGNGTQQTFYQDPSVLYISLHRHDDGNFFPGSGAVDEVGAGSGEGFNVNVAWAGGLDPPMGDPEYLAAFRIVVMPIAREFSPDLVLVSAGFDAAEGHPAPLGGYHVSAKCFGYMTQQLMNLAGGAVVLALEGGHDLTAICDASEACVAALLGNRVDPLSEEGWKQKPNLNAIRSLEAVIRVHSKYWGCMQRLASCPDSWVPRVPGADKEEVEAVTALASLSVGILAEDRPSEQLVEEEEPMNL

Histone deacetylase 8 = target: T3, Histone deacetylase 8 (Homo sapiens, UniProt Q9BY41); experiment: Inhibition of HDAC8
T3 sequence (Q9BY41 whole entry): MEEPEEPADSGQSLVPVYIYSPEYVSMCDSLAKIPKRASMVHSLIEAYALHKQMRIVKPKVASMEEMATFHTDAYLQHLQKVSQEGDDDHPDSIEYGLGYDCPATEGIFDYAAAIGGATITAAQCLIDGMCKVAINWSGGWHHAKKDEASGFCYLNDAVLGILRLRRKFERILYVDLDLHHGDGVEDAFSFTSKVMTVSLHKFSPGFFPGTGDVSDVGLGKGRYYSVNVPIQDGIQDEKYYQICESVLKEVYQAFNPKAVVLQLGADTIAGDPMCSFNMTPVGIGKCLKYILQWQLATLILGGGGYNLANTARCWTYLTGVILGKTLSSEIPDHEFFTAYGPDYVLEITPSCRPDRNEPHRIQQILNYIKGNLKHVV

Histone deacetylase 11 = target: T4, Histone deacetylase 11 (Homo sapiens, UniProt Q96DB2); experiment: Inhibition of HDAC11
T4 sequence (Q96DB2 whole entry): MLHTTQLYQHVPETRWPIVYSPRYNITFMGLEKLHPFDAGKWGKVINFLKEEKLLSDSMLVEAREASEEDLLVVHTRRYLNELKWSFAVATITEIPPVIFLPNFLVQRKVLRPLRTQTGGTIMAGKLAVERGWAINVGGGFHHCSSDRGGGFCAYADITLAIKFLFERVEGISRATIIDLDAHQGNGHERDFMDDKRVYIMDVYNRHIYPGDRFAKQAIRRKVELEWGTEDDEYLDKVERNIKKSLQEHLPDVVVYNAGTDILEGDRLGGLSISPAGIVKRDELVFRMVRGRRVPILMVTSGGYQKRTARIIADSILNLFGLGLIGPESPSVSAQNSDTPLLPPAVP

Mus musculus [21] = experiment: Toxicity in human HCT116 cells xenografted CD1 mouse at 150 to 300 mg/kg, po after 21 days; format: organism-based, HCT-116; parameters: dose 150-300 mg/kg, route oral; conditions: in vivo, 504 h

Chain of Histone deacetylase 1 (Q13547 whole entry): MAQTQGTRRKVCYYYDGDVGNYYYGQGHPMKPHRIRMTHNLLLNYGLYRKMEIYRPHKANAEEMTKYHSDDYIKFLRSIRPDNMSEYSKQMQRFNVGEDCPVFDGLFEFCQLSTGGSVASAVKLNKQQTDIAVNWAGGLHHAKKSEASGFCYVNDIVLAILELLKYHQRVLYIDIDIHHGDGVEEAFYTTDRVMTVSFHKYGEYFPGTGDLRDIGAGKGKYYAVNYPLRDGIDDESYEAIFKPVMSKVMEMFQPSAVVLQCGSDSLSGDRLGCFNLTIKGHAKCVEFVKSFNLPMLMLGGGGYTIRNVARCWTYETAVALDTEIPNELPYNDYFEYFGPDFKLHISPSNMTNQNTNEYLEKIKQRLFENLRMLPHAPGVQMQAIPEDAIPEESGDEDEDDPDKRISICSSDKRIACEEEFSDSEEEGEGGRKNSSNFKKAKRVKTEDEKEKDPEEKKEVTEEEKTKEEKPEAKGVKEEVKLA
Chain of Histone deacetylase 5 (Q9UQL6 whole entry): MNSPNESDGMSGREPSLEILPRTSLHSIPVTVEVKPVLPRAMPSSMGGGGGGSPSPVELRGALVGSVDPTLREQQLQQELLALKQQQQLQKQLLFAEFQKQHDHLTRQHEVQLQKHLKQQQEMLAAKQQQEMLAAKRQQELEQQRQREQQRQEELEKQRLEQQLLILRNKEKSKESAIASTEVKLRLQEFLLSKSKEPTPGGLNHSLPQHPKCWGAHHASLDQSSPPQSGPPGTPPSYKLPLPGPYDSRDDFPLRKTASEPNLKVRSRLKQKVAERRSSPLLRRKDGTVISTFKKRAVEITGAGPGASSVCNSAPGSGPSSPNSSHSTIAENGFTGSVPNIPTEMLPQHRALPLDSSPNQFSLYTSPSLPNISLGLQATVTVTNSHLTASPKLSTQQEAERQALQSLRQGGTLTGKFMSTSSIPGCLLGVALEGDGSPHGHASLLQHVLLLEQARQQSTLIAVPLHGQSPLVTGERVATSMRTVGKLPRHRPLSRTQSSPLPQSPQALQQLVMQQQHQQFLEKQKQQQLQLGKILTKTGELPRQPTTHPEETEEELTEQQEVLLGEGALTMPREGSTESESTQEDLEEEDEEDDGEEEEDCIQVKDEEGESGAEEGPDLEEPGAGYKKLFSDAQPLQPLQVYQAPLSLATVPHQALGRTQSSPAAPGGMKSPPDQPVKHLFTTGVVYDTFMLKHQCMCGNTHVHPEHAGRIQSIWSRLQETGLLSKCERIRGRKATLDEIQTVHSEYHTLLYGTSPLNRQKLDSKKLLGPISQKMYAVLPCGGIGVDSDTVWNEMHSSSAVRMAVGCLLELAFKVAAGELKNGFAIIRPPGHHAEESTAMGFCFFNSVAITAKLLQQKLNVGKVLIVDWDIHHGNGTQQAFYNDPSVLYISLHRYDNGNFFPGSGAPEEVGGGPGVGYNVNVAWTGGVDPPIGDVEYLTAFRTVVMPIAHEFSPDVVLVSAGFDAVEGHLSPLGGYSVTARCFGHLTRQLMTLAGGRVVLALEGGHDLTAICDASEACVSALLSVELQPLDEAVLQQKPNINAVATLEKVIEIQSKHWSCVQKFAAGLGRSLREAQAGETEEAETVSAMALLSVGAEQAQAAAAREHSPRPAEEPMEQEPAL
Chain of Histone deacetylase 2 (Q92769 whole entry): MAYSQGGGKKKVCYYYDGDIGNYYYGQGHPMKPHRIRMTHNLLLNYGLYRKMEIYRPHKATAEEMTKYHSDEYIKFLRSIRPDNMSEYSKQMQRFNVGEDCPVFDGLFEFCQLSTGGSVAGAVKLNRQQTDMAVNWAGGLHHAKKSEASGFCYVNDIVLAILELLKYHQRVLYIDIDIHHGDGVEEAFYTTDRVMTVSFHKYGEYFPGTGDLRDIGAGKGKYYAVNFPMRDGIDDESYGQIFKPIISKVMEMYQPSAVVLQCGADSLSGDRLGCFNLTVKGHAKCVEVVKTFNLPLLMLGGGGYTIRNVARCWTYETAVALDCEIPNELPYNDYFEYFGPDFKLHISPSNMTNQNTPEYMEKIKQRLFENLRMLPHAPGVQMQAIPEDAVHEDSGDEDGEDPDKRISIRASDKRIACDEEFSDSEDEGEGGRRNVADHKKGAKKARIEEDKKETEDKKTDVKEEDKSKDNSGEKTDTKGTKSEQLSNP
Chain of Histone deacetylase 3 (O15379 whole entry): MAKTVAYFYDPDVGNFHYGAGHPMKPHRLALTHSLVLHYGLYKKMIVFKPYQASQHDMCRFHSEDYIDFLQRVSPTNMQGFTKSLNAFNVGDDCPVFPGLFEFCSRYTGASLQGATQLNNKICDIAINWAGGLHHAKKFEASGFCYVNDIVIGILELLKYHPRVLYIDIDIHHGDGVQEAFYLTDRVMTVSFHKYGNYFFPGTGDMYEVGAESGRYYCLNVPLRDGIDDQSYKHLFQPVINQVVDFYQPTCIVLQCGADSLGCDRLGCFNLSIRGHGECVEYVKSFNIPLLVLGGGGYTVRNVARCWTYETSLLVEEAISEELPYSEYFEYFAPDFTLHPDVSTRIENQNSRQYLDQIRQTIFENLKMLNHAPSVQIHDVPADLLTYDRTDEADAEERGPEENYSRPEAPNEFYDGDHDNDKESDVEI
Chain of Histone deacetylase 4 (P56524 whole entry): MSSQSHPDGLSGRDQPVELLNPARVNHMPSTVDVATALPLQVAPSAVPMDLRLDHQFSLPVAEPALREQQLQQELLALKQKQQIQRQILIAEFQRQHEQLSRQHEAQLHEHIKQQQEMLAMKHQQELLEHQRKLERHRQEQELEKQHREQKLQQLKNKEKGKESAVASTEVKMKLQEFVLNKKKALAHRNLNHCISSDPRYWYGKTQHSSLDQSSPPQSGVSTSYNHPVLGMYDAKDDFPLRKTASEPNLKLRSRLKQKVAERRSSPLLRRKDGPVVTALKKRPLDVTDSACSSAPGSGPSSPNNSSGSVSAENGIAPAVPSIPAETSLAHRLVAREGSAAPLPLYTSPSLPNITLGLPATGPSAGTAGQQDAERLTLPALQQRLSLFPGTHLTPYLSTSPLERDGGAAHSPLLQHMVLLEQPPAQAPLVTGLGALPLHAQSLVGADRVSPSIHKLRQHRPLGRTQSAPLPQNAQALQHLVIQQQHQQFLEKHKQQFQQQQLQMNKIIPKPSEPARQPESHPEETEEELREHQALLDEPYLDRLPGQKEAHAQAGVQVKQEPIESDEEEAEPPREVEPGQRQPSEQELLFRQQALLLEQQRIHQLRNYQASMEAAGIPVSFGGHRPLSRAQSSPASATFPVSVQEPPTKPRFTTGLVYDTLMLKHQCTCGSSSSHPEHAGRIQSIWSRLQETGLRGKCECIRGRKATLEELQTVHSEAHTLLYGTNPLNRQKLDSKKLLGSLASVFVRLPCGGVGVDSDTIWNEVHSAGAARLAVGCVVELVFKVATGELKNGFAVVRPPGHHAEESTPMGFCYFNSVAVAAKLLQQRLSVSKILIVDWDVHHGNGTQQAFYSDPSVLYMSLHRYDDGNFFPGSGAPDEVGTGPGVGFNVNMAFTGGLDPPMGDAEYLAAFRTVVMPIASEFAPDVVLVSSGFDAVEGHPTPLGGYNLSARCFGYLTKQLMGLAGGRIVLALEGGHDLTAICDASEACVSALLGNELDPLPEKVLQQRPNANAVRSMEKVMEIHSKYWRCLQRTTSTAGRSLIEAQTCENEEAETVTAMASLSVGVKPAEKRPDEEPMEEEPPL

SMILES | IC50 (Histone deacetylase 1) | GI50 (HCT-116 [1]) | Cmax [2] | AUC [3] | also measured
CCP(=O)(CC)Cc1ccc(C(=O)Nc2cc(-c3cccs3)ccc2N)cc1 | 9 nM | 200 nM | 14 µM | 17 µM·h | 
CCOP(=O)(Cc1ccc(C(=O)Nc2cc(-c3cccs3)ccc2N)cc1)OCC | 13 nM | 250 nM |  |  | Vd [4]: 2.85 L/kg; half-life [5]: 25.8 min; clearance [6]: 15.8 mL/min/kg; bioavailability [7]: 45%; AUC(0-inf) [8]: 4.4 µM·h; Vd [9]: 7.27 L/kg; half-life [10]: 330 min; AUC(0-inf) [11]: 0.17 µM·h; Vd [12]: 20.1 L/kg; half-life [13]: 2.29 days; AUC(0-inf) [14]: 0.25 µM·h; concentration at 3 h [15]: 1540 nM
CCOP(=O)(c1ccccc1)c1ccc(C(=O)Nc2cc(-c3cccs3)ccc2N)cc1 (centres undefined) | 21 nM | 170 nM | 0.56 µM | 0.91 µM·h | 
CCOP(=O)(CNCc1ccc(C(=O)Nc2cc(-c3cccs3)ccc2N)cc1)OCC | 7.7 nM | 300 nM |  |  | IC50 (Histone deacetylase 3): 12 µM; IC50 (Histone deacetylase 2): 14 nM; Activity (Mus musculus [19]): Active; IC50 (Histone deacetylase 4): > 50 µM; IC50 (Histone deacetylase 5): > 50 µM; IC50 [20]: > 50 µM; IC50 (Histone deacetylase 7): > 50 µM; IC50 (Histone deacetylase 8): 37 µM; IC50 (Histone deacetylase 11): > 50 µM; Activity (HCT-116 [17]): Dose-dependent effect; Activity (Mus musculus [21]): Non-toxic
COP(C)(=O)c1ccc(C(=O)Nc2cc(-c3cccs3)ccc2N)cc1 (centres undefined) | 52 nM | 420 nM | 39 µM | 60 µM·h | 
CCOP(=O)(OCC)c1ccc(C(=O)Nc2cc(-c3cccs3)ccc2N)cc1 | 22 nM | 410 nM |  |  | 
COP(=O)(Cc1cccc(C(=O)Nc2cc(-c3cccs3)ccc2N)c1)c1ccccc1 (centres undefined) | 140 nM | 8600 nM |  |  | 

The remaining molecules from weak to strong by IC50 (Histone deacetylase 1), led by results:

IC50 (Histone deacetylase 1) | GI50 (HCT-116 [1]) | Cmax [2] | AUC [3] | SMILES | also measured
54 nM | 160 nM | 88 µM | 115 µM·h | COP(C)(=O)Cc1ccc(C(=O)Nc2cc(-c3cccs3)ccc2N)cc1 (centres undefined) | Activity (Mus musculus [16]): Active; Activity (HCT-116 [17]): Dose-dependent effect; Activity (Mus musculus [18]): 22%
42 nM | > 20000 nM |  |  | CCOP(=O)(O)c1ccc(C(=O)Nc2cc(-c3cccs3)ccc2N)cc1 | 
23 nM | 2500 nM |  |  | CCOP(=O)(Cc1cccc(C(=O)Nc2cc(-c3cccs3)ccc2N)c1)OCC | 
16 nM | 330 nM | 31 µM | 50 µM·h | CCOP(C)(=O)Cc1ccc(C(=O)Nc2cc(-c3cccs3)ccc2N)cc1 (centres undefined) | Activity (Mus musculus [16]): inactive
